Test results as given in PMC8777605 (Pharmaceuticals, 2021).
Entries after “also recorded” stand apart in the source; their conditions may differ. Read-outs that look alike come from different tables or passages of the source.

Assays:
Cytotoxic assay = format: cell-based; conditions: African green monkey, table title says Calu-3 cells, method says Vero cells
Procedure: All experiments were carried out at least three independent times and each data was analyzed from Prism GraphPad software 8.0 (Windows GraphPad Software, San Diego, CA, USA). The results were presented as mean ± standard deviation (SD).

[1] = system: SARS-CoV-2 gamma strain (P1, B.1.1.28); experiment: microbe, parasite or virus in culture; conditions: Severe acute respiratory syndrome coronavirus 2, Calu-3, 48 h
[2] = system: SARS-CoV-2 gamma strain (P1, B.1.1.28)
[3] = target: T1, SARS-CoV-2 papain-like protease (PL^pro) (Severe acute respiratory syndrome coronavirus 2, UniProt P0DTD1); experiment: SARS-CoV-2 PL^pro enzymatic assay (BPS Bioscience kit); format: biochemical
T1 construct: purchased BPS Bioscience #79995-1
Procedure: (§1) Fluorescence signal was measured at an emission wavelength of 460 nm with excitation at 360 nm in a GloMax® (Promega, Madison, WI, USA) plate reader. Morrison’s inhibitory constant (Ki) was calculated by non-linear regression using GraphPad Prism 9. […] After fluorescence quantification, the Michaelis–Menten constant (Km) and maximum velocity (Vmax) were calculated by non-linear regression using GraphPad Prism 9. The value was presented as mean ± standard deviation (SD).

SARS-CoV-2 B.1 lineage = experiment: microbe, parasite or virus in culture; format: cell-based
[4] = target: T2, SARS-CoV-2 main protease (M^pro) (Severe acute respiratory syndrome coronavirus 2, UniProt P0DTD1); experiment: biochemical
T2 construct: purchased BPS Bioscience #79955-1
Procedure: as §1

[5] = system: human platelet-poor plasma clotting; experiment: Plasma clotting time (fibrin formation); conditions: three concentrations of ATV, Figure S3
Procedure: Human blood samples were collected from healthy donors in 3.8% trisodium citrate (9:1, v/v), and platelet-poor plasma was obtained by centrifugation at 3000 rpm for 10 min. […] Time for clot formation was recorded in triplicates.

[6] = Pharmacokinetics in plasma and lungs after oral dosing; format: in vivo, Swiss–Webster mice; conditions: mice, 60 mg/kg oral
Procedure: Each treatment group had five animals. After these periods of times, total blood and lungs were collected. Plasma was obtained by blood centrifugation at 8000× g for 15 min. Time zero was obtained by analyzing the matrix pool (blood plasma) of untreated animals. The pharmacokinetic parameters of half-life (t1/2, h), time until maximum concentration is reached (tmax, h), maximum compound concentration (Cmax, ng/mL) and area under the curve (AUC, h.ng/mL) were determined. The experiments performed in this section were approved by the Committee on the Use of Laboratory Animals of the Oswaldo Cruz Foundation (CEUA-FIOCRUZ, license L003/21).

SARS-CoV-2 gamma strain = format: in vivo, K18-hACE2 mice

CCC(CC)COC(=O)[C@H](C)N[P@](=O)(OC[C@H]1O[C@@](C#N)(c2ccc3c(N)ncnn23)[C@H](O)[C@@H]1O)Oc1ccccc1 [RDV, remdesivir]
CC50 at 3 days (Cytotoxic assay): 512 ± 30 µM
EC50 [1]: 0.113 ± 0.01 µM
SI (CC50/EC50) [2]: 4530

COC(=O)N[C@H](C(=O)N[C@@H](Cc1ccccc1)[C@@H](O)CN(Cc1ccc(-c2ccccn2)cc1)NC(=O)[C@@H](NC(=O)OC)C(C)(C)C)C(C)(C)C [ATV, atazanavir]
Inhibition of PL^pro (in words) ([3]; 0–10 μM): did not inhibit; also recorded: above the threshold of in vitro inhibition
Ki ([3]; 100 nM PL^pro, 25 μM substrate, 45–60 min, 0–10 μM inhibitor, read-out: Morrison's inhibitory constant (Ki)): 9.87 µM
EC50 (SARS-CoV-2 B.1 lineage): 0.321 ± 0.016 µM
EC50 (SARS-CoV-2 B.1 lineage; Severe acute respiratory syndrome coronavirus 2, Calu-3, 48 h): 0.49 ± 0.02 µM
Ki [4]: 0.703 ± 0.079 µM
Increase of M^pro's Km by the inhibitor ([4]; 2.5 μM ATV versus absence): more than sixfold
Inhibition profile (mechanism) ([4]; Vmax not different, Km increased): competitive inhibition profile
Maximum velocity (Vmax) of M^pro ([4]; in the presence of 2.5 μM ATV, substrate 0–100 μM): 24.94 ± 3.70 µM/min
Anti-clotting activity [5]: could not prevent hemorrhage as an anti-clotting agent
AUC ([6]; Swiss-Webster, mouse, plasma): 14.3 µg·h/mL
Cmax ([6]; Swiss-Webster, mouse, plasma): 7.43 µg/mL
Tmax ([6]; Swiss-Webster, mouse, plasma): 1 h
half-life ([6]; Swiss-Webster, mouse, plasma): 9.9 h
Distribution to the lung ([6]; AUC lung versus plasma): concentrated in the lung
CC50 at 3 days (Cytotoxic assay): 312 ± 8 µM
EC50 [1]: 0.399 ± 0.02 µM
Body weight, treated versus untreated infected mice (SARS-CoV-2 gamma strain; 60 mg/kg oral daily): not a statical difference
Lung injury (hemorrhage, shrinking of lobe, bronchiole and alveoli), histology (SARS-CoV-2 gamma strain; 60 mg/kg oral daily): reduced
SARS-CoV-2-induced IL-6 levels in the BAL and in the lungs (SARS-CoV-2 gamma strain; 60 mg/kg oral daily): reduced
Levels of IL-6, TNF-a, KC and PF4 in the BAL (SARS-CoV-2 gamma strain; 60 mg/kg oral daily, compared to untreated mice): lower levels
Animal survival (in words) (SARS-CoV-2 gamma strain; mouse, in vivo): statistically significant increase
Cell death (LDH activity) in BAL (SARS-CoV-2 gamma strain; mouse, in vivo): significantly decreased
Enhancement of survival (SARS-CoV-2 gamma strain; mouse, in vivo): 30%
Polymorphonuclear and mononuclear cell counts in BAL (SARS-CoV-2 gamma strain; mouse, in vivo): significantly decreased
SARS-CoV-2 RNA levels in BAL (SARS-CoV-2 gamma strain; mouse, in vivo): significantly decreased
